Legend:
barnyardgrass [1] = experiment: Test B pre-/postemergence herbicide test; assay type: in vivo, Echinochloa crus-galli; conditions: for Barnyardgrass plant response rating: postemergence, scale 0 (no effect) to 100 (complete control)
Summary of the method: (§1)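 Evaluation is visual, comparing treated with control plants on a scale where 0 means no effect and 100 means full control. Treatments were preemergence, or postemergence on seedlings 2–18 cm tall, and held 13–15 days in the greenhouse.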

Surinam grass = experiment: Test B pre-/postemergence herbicide test; assay type: in vivo, Urochloa decumbens; conditions: for Surinam Grass plant response rating: postemergence
Summary of the method: (§2)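 Response was scored visually 13 to 15 days after treatment against untreated greenhouse controls, 0 meaning no effect and 100 complete control. Formulations (solvent mixture plus surfactant) went onto soil after planting, onto foliage of 1- to 4-leaf plants, and onto 2-leaf plants in a flooded paddy set including rice and barnyardgrass.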

cocklebur = experiment: Test B pre-/postemergence herbicide test; assay type: in vivo, Xanthium strumarium; conditions: for Cocklebur plant response rating: postemergence, scale 0 (no effect) to 100 (complete control)
Summary of the method: as §1

corn = experiment: Test B pre-/postemergence herbicide test; assay type: in vivo, Zea mays; conditions: for Corn plant response rating: postemergence
Summary of the method: as §2

large crabgrass = experiment: Test B pre-/postemergence herbicide test; assay type: in vivo, Digitaria sanguinalis; conditions: for Crabgrass, Large plant response rating: postemergence
Summary of the method: as §2

giant foxtail = experiment: Test B pre-/postemergence herbicide test; assay type: in vivo, Setaria faberi; conditions: for Foxtail, Giant plant response rating: postemergence
Summary of the method: as §2

lambsquarters = experiment: Test B pre-/postemergence herbicide test; assay type: in vivo, Chenopodium album; conditions: for Lambsquarters plant response rating: postemergence
Summary of the method: as §2

morningglory = experiment: Test B pre-/postemergence herbicide test; assay type: in vivo, Ipomoea coccinea; conditions: for Morningglory plant response rating: postemergence
Summary of the method: as §1

pigweed = experiment: Test B pre-/postemergence herbicide test; assay type: in vivo, Amaranthus retroflexus; conditions: for Pigweed plant response rating: postemergence
Summary of the method: as §2

rice [2] = experiment: Test B pre-/postemergence herbicide test; assay type: in vivo, Oryza sativa; conditions: 0 = no effect, 100 = complete control, preemergence
Summary of the method: as §2

velvetleaf = experiment: Test B pre-/postemergence herbicide test; assay type: in vivo, Abutilon theophrasti; conditions: for Velvetleaf plant response rating: postemergence
Summary of the method: as §2

blackgrass = experiment: Test B postemergence herbicide test; assay type: in vivo, Alopecurus myosuroides; conditions: postemergence, visual rating, scale 0 (no effect) to 100 (complete control)
Summary of the method: (§3)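 Each value is a visual 0–100 response rating taken against controls 13 to 15 days after treatment in the greenhouse. Plants received formulated chemical postemergence at the 1- to 4-leaf stage or, in flooded paddy, at the 2-leaf stage.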

wheat = experiment: Test B postemergence herbicide test; assay type: in vivo, Triticum aestivum; parameters: key to Wheat plant response rating: 0 = no effect, 100 = complete control; conditions: postemergence
Summary of the method: (§4)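 Postemergence plants were sprayed with formulated test chemicals at 2 to 18 cm height (1- to 4-leaf stage); paddy species were grown to the 2-leaf stage. After 13 to 15 days in a greenhouse, injury was rated visually against untreated controls on a 0–100 scale (0 = no effect, 100 = complete control).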

wild oat = experiment: Test B postemergence herbicide test; assay type: in vivo, Avena fatua; conditions: postemergence
Summary of the method: as §4

rice [3] = experiment: Test B flooded paddy test; assay type: in vivo, Oryza sativa; conditions: 1000 g ai/ha, scale 0 to 100 (0 no effect, 100 complete control)
Summary of the method: as §4

[4] = system: small flower umbrella sedge; experiment: Test B flooded paddy test; assay type: in vivo, Cyperus difformis; conditions: 1000 g ai/ha, scale 0 to 100 (0 no effect, 100 complete control)
Summary of the method: as §3

ducksalad [5] = experiment: Test B flooded paddy test; assay type: in vivo, Heteranthera limosa; conditions: 1000 g ai/ha, scale 0 to 100 (0 no effect, 100 complete control)
Summary of the method: as §3

barnyardgrass [6] = experiment: Test B flooded paddy test; assay type: in vivo, Echinochloa crus-galli; conditions: 1000 g ai/ha, scale 0 to 100 (0 no effect, 100 complete control)
Summary of the method: as §3

rice [7] = experiment: Test C flooded paddy test; assay type: in vivo, Oryza sativa
Summary of the method: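 Plants were grown to the 1- to 4-leaf stage (2–18 cm) and then treated postemergence, or grown to the 2-leaf stage for the flooded paddy test. They were held in a greenhouse for 12 to 14 days and then scored by eye against controls, where 0 is no effect and 100 is complete control.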

[8] = system: smallflower umbrella sedge; experiment: Test C flooded paddy test; assay type: in vivo, Cyperus difformis
ducksalad [9] = experiment: Test C flooded paddy test; assay type: in vivo, Heteranthera limosa
barnyardgrass [10] = experiment: Test C flooded paddy test; assay type: in vivo, Echinochloa crus-galli
Summary of the method: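 Postemergence sprays applied to plants 2 to 18 cm tall (1- to 4-leaf stage); paddy species grown to 2-leaf stage under flooding. After 12 to 14 days in greenhouse, visual rating versus untreated controls on 0–100 scale (0 no effect, 100 complete control).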

[11] = 125 g ai/ha, 0 = no effect, 100 = complete control, preemergence
[12] = 500 g ai/ha, visual rating, 0 = no effect, 100 = complete control, preemergence
[13] = 125 g ai/ha, visual rating, scale 0 (no effect) to 100 (complete control)
[14] = 500 g ai/ha, scale 0 to 100, 0 is no effect, 100 is complete control
[15] = 125 g ai/ha, scale 0 to 100 (0 no effect, 100 complete control)
[16] = 250 g ai/ha, scale of 0 to 100, 0 is no effect, 100 is complete control
[17] = 500 g ai/ha, visual rating after 12 to 14 days, scale 0 to 100 (0 no effect, 100 complete control)

## CCn1nc(C(C)(C)C)cc1C(=O)Nc1cccc(C(=O)N2CCOCC2)n1 [Compound 247]
Barnyardgrass [1]; [11]
  Barnyardgrass plant response rating (0 to 100 scale): 30
Barnyardgrass [1]; [12]
  Plant response rating, Barnyardgrass: 80
Barnyardgrass [1]; 125 g ai/ha, visual rating
  Barnyardgrass plant response rating: 0
Barnyardgrass [1]; 500 g ai/ha, visual rating
  Barnyardgrass plant response rating: 10
Surinam grass; [11]
  Surinam Grass plant response rating (0 to 100 scale): 20
Surinam grass; [12]
  Plant response rating, Surinam Grass: 50
Surinam grass; [13]
  Surinam Grass plant response rating: 10
Surinam grass; [14]
  Surinam Grass plant response rating: 20
cocklebur; [11]
  Cocklebur plant response rating (0 to 100 scale): 0
cocklebur; [12]
  Plant response rating, Cocklebur: 0
cocklebur; 125 g ai/ha, visual rating
  Cocklebur plant response rating: 0
cocklebur; 500 g ai/ha, visual rating
  Cocklebur plant response rating: 30
corn; [11]
  Corn plant response rating (0 to 100 scale): 0
corn; [12]
  Plant response rating, Corn: 30
corn; [13]
  Corn plant response rating: 0
corn; [14]
  Corn plant response rating: 20
Large crabgrass; [11]
  Crabgrass, Large plant response rating (0 to 100 scale): 20
Large crabgrass; [12]
  Plant response rating, Crabgrass, Large: 80
Large crabgrass; [13]
  Crabgrass, Large plant response rating: 10
Large crabgrass; [14]
  Crabgrass, Large plant response rating: 10
Giant foxtail; [11]
  Foxtail, Giant plant response rating (0 to 100 scale): 10
Giant foxtail; [12]
  Plant response rating, Foxtail, Giant: 70
Giant foxtail; [13]
  Foxtail, Giant plant response rating: 10
Giant foxtail; [14]
  Foxtail, Giant plant response rating: 20
lambsquarters; [11]
  Lambsquarters plant response rating (0 to 100 scale): 80
lambsquarters; [12]
  Plant response rating, Lambsquarters: 100
lambsquarters; [13]
  Lambsquarters plant response rating: 60
lambsquarters; [14]
  Lambsquarters plant response rating: 70
morningglory; [11]
  Morningglory plant response rating (0 to 100 scale): 0
morningglory; [12]
  Plant response rating, Morningglory: 10
morningglory; [13]
  Morningglory plant response rating: 20
morningglory; [14]
  Morningglory plant response rating: 30
pigweed; [11]
  Pigweed plant response rating (0 to 100 scale): 100
pigweed; [12]
  Plant response rating, Pigweed: 100
pigweed; [13]
  Pigweed plant response rating: 60
pigweed; [14]
  Pigweed plant response rating: 60
Rice [2]; 125 g ai/ha
  Rice plant response rating (0 to 100 scale): 10
Rice [2]; 500 g ai/ha, visual rating
  Plant response rating, Rice: 40
velvetleaf; [11]
  Velvetleaf plant response rating (0 to 100 scale): 20
velvetleaf; [12]
  Plant response rating, Velvetleaf: 100
velvetleaf; [13]
  Velvetleaf plant response rating: 30
velvetleaf; [14]
  Velvetleaf plant response rating: 70
blackgrass; 125 g ai/ha
  Blackgrass plant response rating: 0
blackgrass; 500 g ai/ha
  Blackgrass plant response rating: 0
wheat; [13]
  Wheat plant response rating: 0
wheat; [14]
  Wheat plant response rating: 0
Wild oat; [13]
  Oat, Wild plant response rating: 0
Wild oat; [14]
  Oat, Wild plant response rating: 10
Rice [3]
  Rice plant response rating: 80
[4]
  Sedge, Umbrella plant response rating: 70
Ducksalad [5]
  Ducksalad plant response rating: 80
Barnyardgrass [6]
  Barnyardgrass plant response rating: 70
Rice [7]; 62 g ai/ha, scale 0 to 100
  Rice plant response rating: 0
Rice [7]; [15]
  Rice plant response rating: 0
Rice [7]; [16]
  Rice plant response rating: 20
Rice [7]; [17]
  Plant response rating, Rice: 75
[8]; 62 g ai/ha, scale 0 to 100
  Sedge, Umbrella plant response rating: 0
[8]; [15]
  Sedge, Umbrella plant response rating: 0
[8]; [16]
  Sedge, Umbrella plant response rating: 15
[8]; [17]
  Plant response rating, Sedge, Umbrella: 75
Ducksalad [9]; 62 g ai/ha, scale 0 to 100
  Ducksalad plant response rating: 0
Ducksalad [9]; [15]
  Ducksalad plant response rating: 0
Ducksalad [9]; [16]
  Ducksalad plant response rating: 0
Ducksalad [9]; [17]
  Plant response rating, Ducksalad: 80
Barnyardgrass [10]; 62 g ai/ha, scale 0 to 100 (0 no effect, 100 complete control)
  Barnyardgrass plant response rating: 0
Barnyardgrass [10]; [15]
  Barnyardgrass plant response rating: 0
Barnyardgrass [10]; [16]
  Barnyardgrass plant response rating: 0
Barnyardgrass [10]; [17]
  Plant response rating, Barnyardgrass: 0

— patent US20060069132A1, “Azolecarboxamide herbicides” (priority 2004, published 2006)
